Experimental data published in patent US12195427B2, “MASP-2 inhibitors and methods of use” (priority 2018, dated 2025).
Counter-ions that a name gives are not always drawn.

Target: MASP-2 (CCP1-CCP2-SP) (Homo sapiens (Human), UniProt O00187)
Assay: Enzymatic Assay for MASP-2 (fluorogenic substrate)
Format: biochemical

Sequence of MASP-2 (CCP1-CCP2-SP) (O00187 445-686): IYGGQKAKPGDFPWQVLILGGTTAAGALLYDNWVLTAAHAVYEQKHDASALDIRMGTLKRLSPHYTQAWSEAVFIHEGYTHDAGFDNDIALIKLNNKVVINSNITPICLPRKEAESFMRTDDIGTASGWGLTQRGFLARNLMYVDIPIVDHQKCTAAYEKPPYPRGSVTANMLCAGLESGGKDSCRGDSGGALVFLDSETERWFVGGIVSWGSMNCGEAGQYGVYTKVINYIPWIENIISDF

Row | Structure (SMILES) | Ki | MASP-2 versus thrombin selectivity (+Zn)
1 | C[C@H](NC(=O)[C@H](N)CCc1ccccc1)C(=O)NCc1cc(Cl)ccc1-n1cnnn1 [compound 1325, (R)-2-amino-N—((S)-1-((5-chloro-2-(1H-tetrazol-1-yl)benzyl)amino)-1-oxopropan-2-yl)-4-phenylbutanamide] | 500 to 2500 nM | –
2 | Cc1nc(N)ccc1CNC(=O)[C@H](C)NC(=O)[C@H]1C[C@@H](c2cccc(CN)c2)CN1 [compound 1291, (2R,4S)—N—((S)-1-(((6-Amino-2-methylpyridin-3-yl)methyl)amino)-1-oxopropan-2-yl)-4-(3-(aminomethyl)phenyl)pyrrolidine-2-carboxamide] | 500 to 2500 nM | –
3 | Cc1cccc(CNC(=O)[C@H](C)NC(=O)[C@H]2C[C@H](Cc3ccccc3)CN2)c1-n1ncnn1 [compound 1437, (2R,4S)-4-Benzyl-N—((S)-1-((3-methyl-2-(2H-tetrazol-2-yl)benzyl)amino)-1-oxopropan-2-yl)pyrrolidine-2-carboxamide] | 500 to 2500 nM | –
4 | N=C(N)c1ccc2[nH]c(Cc3ccccn3)nc2c1 [compound 2002, 2-(Pyridin-2-ylmethyl)-1H-benzo[d]imidazole-5-carboximidamide Dihydrochloride] | – | ++ (+Zn) (5.0 to 25-fold)
